Results as given in patent US8937048B2, “Anti-angiogenic compounds” (Covx Technologies Ireland, Limited, priority 2008, dated 2015).
pIC50: −log10 of the molar value. Where a SMILES comes first, the peptide text is derived from it. Bridges are numbered along the chain shown (N, C = ends).

Biological target: T1, recombinant human VEGF165 (Homo sapiens, UniProt P15692)
T1 sequence (P15692 27-191 isoform P15692-4): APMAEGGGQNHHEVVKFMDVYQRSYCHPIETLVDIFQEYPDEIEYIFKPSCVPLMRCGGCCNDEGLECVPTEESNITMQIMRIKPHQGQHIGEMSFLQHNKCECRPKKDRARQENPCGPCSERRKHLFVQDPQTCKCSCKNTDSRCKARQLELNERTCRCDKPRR
Assay: VEGF peptide binding assay (competition ELISA, VEGF165 binding to coated VEGFR2/Fc)
Method: High-binding half-well 96-well plates (Costar #3690) were coated with recombinant human VEGFR2/Fc (50 ng/well) in 50 μl PBS, and incubated at 4° C. overnight. After washing the plates three times with 1× washing buffer (KPL Cat#50-65-00) and blocking with Superblock (Scytek #AAA500) at room temperature (RT) for 1 hour, VEGF-peptides of the invention were serially diluted (concentrations: 0.128-10,000 nM) in the presence of 25 ng/ml of recombinant human VEGF165 in […] Superblock, and were then added to the 96-well plates and incubated at RT for 1 hour. Peptides of the invention tested in this fashion were all capped at the amino terminus with a C(O)CH3 group and at the carboxyl terminus with a NH2 group. The plates were then washed three times with washing buffer, and a diluted (1:500) biotinylated anti-human VEGF antibody (R&D systems, Cat# BAF293) was added and incubated at RT for 2 hours. After washing the plates, streptavidin HRP conjugate (1:200 in Superblock) (R&D systems, Cat# DY998) was added to detect the bound anti-VEGF antibody, followed by addition of tetramethylbenzidine (TMB) substrate (Pierce, Cat#34021) for color development. The reaction was stopped with 2 M H2SO4. OD450 was measured using SpectraMax (Molecular Device) with a correction wavelength of 540 nm. The data were analyzed using Prism software. OD450 values were plotted as a function of the concentrations of the VEGF peptides. IC50 values, indicative of the potency of the VEGF peptides to inhibit VEGF-VEGFR2 interaction, were obtained using a sigmoid dose-response curve fit in Prism.

SMILES | pIC50
CC[C@H](C)[C@@H]1NC(=O)[C@H](CC(=O)O)NC(=O)[C@@H](NC(=O)[C@H](CC(N)=O)NC(=O)[C@@H]2CCCN2C(=O)[C@H](CCC(=O)O)NC(=O)[C@@H](NC(C)=O)C(C)C)CSSC[C@@H](C(=O)N[C@@H](Cc2ccccc2)C(=O)N[C@@H](CCC(=O)O)C(=O)N[C@@H](CCCNC(=N)N)C(=O)N[C@@H](CC(C)C)C(N)=O)NC(=O)[C@H](CCC(=O)O)NC(=O)[C@H](Cc2c[nH]c3ccccc23)NC(=O)[C@H](CCC(=O)O)NC(=O)[C@H](Cc2c[nH]c3ccccc23)NC(=O)[C@H](CCSC)NC(=O)[C@H](C(C)C)NC(=O)[C@H](Cc2c[nH]cn2)NC1=O [Compound 34, V-E-P-N-C-D-I-H-V-M-W-E-W-E-C-F-E-R-L] (Ac-VEPNCDIHVMWEWECFERL-NH2; disulfide 5-15 (inferred)) | 6.73
CC[C@H](C)[C@@H]1NC(=O)[C@H](CC(=O)O)NC(=O)[C@@H](NC(=O)[C@H](CC(N)=O)NC(=O)[C@@H]2CCCN2C(=O)[C@H](CCC(=O)O)NC(=O)[C@@H](NC(C)=O)C(C)C)CSSC[C@@H](C(=O)N[C@@H](Cc2ccccc2)C(=O)N[C@@H](CCC(=O)O)C(=O)N[C@@H](CCCNC(=N)N)C(=O)N[C@@H](CC(C)C)C(=O)N[C@@H](Cc2ccc(O)cc2)C(=O)NCC(=O)NCC(=O)N[C@@H](Cc2c[nH]c3ccccc23)C(N)=O)NC(=O)[C@H](CCC(=O)O)NC(=O)[C@H](Cc2c[nH]c3ccccc23)NC(=O)[C@H](C(C)C)NC(=O)[C@H](Cc2c[nH]c3ccccc23)NC(=O)[C@H](CCSC)NC(=O)[C@H](C(C)C)NC(=O)[C@H](Cc2c[nH]cn2)NC1=O [Compound 35, VEPNCDIHVMWVWECFERLYGGW] (Ac-VEPNCDIHVMWVWECFERLYGGW-NH2; disulfide 5-15 (inferred)) | 6.49
CC[C@H](C)[C@@H]1NC(=O)[C@H](CC(=O)O)NC(=O)[C@@H](NC(=O)[C@H](CC(N)=O)NC(=O)[C@@H]2CCCN2C(=O)[C@H](CCC(=O)O)NC(=O)[C@@H](NC(C)=O)C(C)C)CSSC[C@@H](C(=O)N[C@@H](Cc2ccccc2)C(=O)N[C@@H](CCC(=O)O)C(=O)N[C@@H](CCCNC(=N)N)C(=O)N[C@@H](CC(C)C)C(=O)N[C@@H](Cc2ccccc2)C(=O)N[C@@H](CCCNC(=N)N)C(=O)N[C@@H](CCC(=O)O)C(=O)N[C@@H](C)C(N)=O)NC(=O)[C@H](C(C)C)NC(=O)[C@H](Cc2c[nH]c3ccccc23)NC(=O)[C@H](C(C)C)NC(=O)[C@H](Cc2c[nH]c3ccccc23)NC(=O)[C@H](CCSC)NC(=O)[C@H](C(C)C)NC(=O)[C@H](Cc2c[nH]cn2)NC1=O [Compound 36, VEPNCDIHVMWVWVCFERLFREA] (Ac-VEPNCDIHVMWVWVCFERLFREA-NH2; disulfide 5-15 (inferred)) | 6.76
CC[C@H](C)[C@@H]1NC(=O)[C@H](CC(=O)O)NC(=O)[C@@H](NC(=O)[C@H](CC(N)=O)NC(=O)[C@@H]2CCCN2C(=O)[C@H](CCC(=O)O)NC(=O)[C@@H](NC(C)=O)C(C)C)CSSC[C@@H](C(=O)N[C@@H](Cc2ccccc2)C(=O)N[C@@H](CCC(=O)O)C(=O)N[C@@H](CCCNC(=N)N)C(=O)N[C@@H](CC(C)C)C(=O)N[C@@H](Cc2ccccc2)C(=O)N[C@@H](CCCCN)C(=O)N[C@@H](CCC(=O)O)C(=O)N[C@@H](C)C(N)=O)NC(=O)[C@H](C(C)C)NC(=O)[C@H](Cc2c[nH]c3ccccc23)NC(=O)[C@H](C(C)C)NC(=O)[C@H](Cc2c[nH]c3ccccc23)NC(=O)[C@H](CCSC)NC(=O)[C@H](C(C)C)NC(=O)[C@H](Cc2c[nH]cn2)NC1=O [Compound 37, VEPNCDIHVMWVWVCFERLFKEA] (Ac-VEPNCDIHVMWVWVCFERLFKEA-NH2; disulfide 5-15 (inferred)) | 7.23
CC[C@H](C)[C@@H]1NC(=O)[C@H](CC(=O)O)NC(=O)[C@@H](NC(=O)[C@H](CC(N)=O)NC(=O)[C@@H]2CCCN2C(=O)[C@H](CCC(=O)O)NC(=O)[C@@H](NC(C)=O)C(C)C)CSSC[C@@H](C(=O)N[C@@H](Cc2ccccc2)C(=O)N[C@@H](CCC(=O)O)C(=O)N[C@@H](CCCNC(=N)N)C(=O)N[C@@H](CC(C)C)C(=O)N[C@@H](CCSC)C(=O)N[C@@H](CCCCN)C(N)=O)NC(=O)[C@H](C(C)C)NC(=O)[C@H](Cc2c[nH]c3ccccc23)NC(=O)[C@H](C(C)C)NC(=O)[C@H](Cc2c[nH]c3ccccc23)NC(=O)[C@H](CCSC)NC(=O)[C@H](C(C)C)NC(=O)[C@H](Cc2c[nH]cn2)NC1=O [Compound 38, VEPNCDIHVMWVWVCFERLMK] (Ac-VEPNCDIHVMWVWVCFERLMK-NH2; disulfide 5-15 (inferred)) | 7.03
CC[C@H](C)[C@@H]1NC(=O)[C@H](CC(=O)O)NC(=O)[C@@H](NC(=O)[C@H](CC(N)=O)NC(=O)[C@@H]2CCCN2C(=O)[C@H](CCC(=O)O)NC(=O)[C@@H](NC(C)=O)C(C)C)CSSC[C@@H](C(=O)N[C@@H](Cc2ccccc2)C(=O)N[C@@H](CCC(=O)O)C(=O)N[C@@H](CCCNC(=N)N)C(=O)N[C@@H](CC(C)C)C(=O)N[C@@H](Cc2ccc(O)cc2)C(=O)N[C@@H](CCCNC(=N)N)C(=O)N[C@@H](CCC(=O)O)C(=O)N[C@@H](CC(C)C)C(N)=O)NC(=O)[C@H](CCC(=O)O)NC(=O)[C@H](Cc2c[nH]c3ccccc23)NC(=O)[C@H](C(C)C)NC(=O)[C@H](Cc2c[nH]c3ccccc23)NC(=O)[C@H](CCSC)NC(=O)[C@H](C(C)C)NC(=O)[C@H](Cc2c[nH]cn2)NC1=O [Compound 39, VEPNCDIHVMWVWECFERLYREL] (Ac-VEPNCDIHVMWVWECFERLYREL-NH2; disulfide 5-15 (inferred)) | 7.15
CC[C@H](C)[C@H](NC(=O)CNC(=O)[C@H](Cc1ccc(O)cc1)NC(=O)[C@H](CC(C)C)NC(=O)[C@H](CCCNC(=N)N)NC(=O)[C@H](CCC(=O)O)NC(=O)[C@H](Cc1ccccc1)NC(=O)[C@@H]1CSSC[C@H](NC(=O)[C@H](CC(N)=O)NC(=O)[C@@H]2CCCN2C(=O)[C@H](CCC(=O)O)NC(=O)[C@@H](NC(C)=O)C(C)C)C(=O)N[C@@H](CC(=O)O)C(=O)N[C@@H]([C@@H](C)CC)C(=O)N[C@@H](Cc2c[nH]cn2)C(=O)N[C@@H](C(C)C)C(=O)N[C@@H](CCSC)C(=O)N[C@@H](Cc2c[nH]c3ccccc23)C(=O)N[C@@H](C(C)C)C(=O)N[C@@H](Cc2c[nH]c3ccccc23)C(=O)N[C@@H](CCC(=O)O)C(=O)N1)C(=O)N[C@@H](Cc1ccccc1)C(N)=O [Compound 40, VEPNCDIHVMWVWECFERLYGIF] (Ac-VEPNCDIHVMWVWECFERLYGIF-NH2; disulfide 5-15 (inferred)) | 7.11
CC[C@H](C)[C@@H]1NC(=O)[C@H](CC(=O)O)NC(=O)[C@@H](NC(=O)[C@H](CC(N)=O)NC(=O)[C@@H]2CCCN2C(=O)[C@H](CCC(=O)O)NC(=O)[C@@H](NC(C)=O)C(C)C)CSSC[C@@H](C(=O)N[C@@H](Cc2ccccc2)C(=O)N[C@@H](CCC(=O)O)C(=O)N[C@@H](CCCNC(=N)N)C(=O)N[C@@H](CC(C)C)C(=O)N[C@@H](Cc2ccc(O)cc2)C(N)=O)NC(=O)[C@H](CCC(=O)O)NC(=O)[C@H](Cc2c[nH]c3ccccc23)NC(=O)[C@H](C(C)C)NC(=O)[C@H](Cc2c[nH]c3ccccc23)NC(=O)[C@H](CCSC)NC(=O)[C@H](C(C)C)NC(=O)[C@H](Cc2c[nH]cn2)NC1=O [Compound 41, VEPNCDIHVMWVWECFERLY] (Ac-VEPNCDIHVMWVWECFERLY-NH2; disulfide 5-15 (inferred)) | 7.16
CC[C@H](C)[C@@H]1NC(=O)[C@H](CC(=O)O)NC(=O)[C@@H](NC(=O)[C@H](CC(N)=O)NC(=O)[C@@H]2CCCN2C(=O)[C@H](CCC(=O)O)NC(=O)[C@@H](NC(C)=O)C(C)C)CSSC[C@@H](C(=O)N[C@@H](Cc2ccccc2)C(=O)N[C@@H](CCC(=O)O)C(=O)N[C@@H](CCCNC(=N)N)C(=O)N[C@@H](CC(C)C)C(=O)N[C@@H](Cc2ccc(O)cc2)C(=O)NCC(=O)N[C@@H](Cc2c[nH]c3ccccc23)C(=O)NCC(N)=O)NC(=O)[C@H](CCC(=O)O)NC(=O)[C@H](Cc2c[nH]c3ccccc23)NC(=O)[C@H](C(C)C)NC(=O)[C@H](Cc2c[nH]c3ccccc23)NC(=O)[C@H](CCSC)NC(=O)[C@H](C(C)C)NC(=O)[C@H](Cc2c[nH]cn2)NC1=O [Compound 42, VEPNCDIHVMWVWECFERLYGWG] (Ac-VEPNCDIHVMWVWECFERLYGWG-NH2; disulfide 5-15 (inferred)) | 7.17
